Measurements as given in PubChem BioAssay (NCI).
“And” between values parts separate entries of the source, which are not always exact repeats. Identical values can stand only once.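 Assay format: 96-well plates, 48-hour exposure. Abbreviation: GI50, concentration required for 50% inhibition of growth. The concentration for full growth arrest is given as TGI.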

Each compound was assayed on UACC-62 melanoma (assay: growth of human tumour cells (NCI), 48 h).
For `O=C(CC(=O)Nc1ccccc1)NNC(Sc1ccccc1)c1cc(N=Nc2ccc(Br)cc2)ccc1O` (configuration not stated), the TGI was 9.81 µM. With `Cc1cc(C(=O)CSC(=S)SC(C)(C)C)ccc1Cl` the TGI was 30.1 µM. For `C=CC12CCN(CC1)C(C(O)c1ccnc3ccc(OC)cc13)C2` (configuration not stated), the GI50 was over 100 µM and the TGI was over 100 µM. For `O=C(Nc1nc(-c2c[nH]c3ccccc23)cs1)c1n[nH]c(=O)c2ccccc12`, the GI50 was 1.45 µM and the TGI was over 100 µM. `CN(C)CCN1CCC(Cc2ccccc2)CC1` was tested, and the GI50 was over 80 µM and the TGI was over 80 µM. In the case of `COc1cc2c3c(n(C)c(=O)c2cc1OC)-c1cc2c(cc1C3=O)OCO2`, the TGI was 32.4 µM. `COc1ccc(/C=C\c2cc(OC)c(OC)c(OC)c2)cc1OCC(=O)O` gave a TGI of over 100 µM. In the case of `O=C(CNc1ccc(Cl)cc1Cl)Nn1c(-c2ccccc2)nc2ccccc2c1=O`, the TGI was 19.5 µM. In the case of `O=C(Nc1ncc(Cc2cccc(C(F)(F)F)c2)s1)c1ccc2c(c1)OCCO2`, the GI50 was 0.372 µM and the TGI was over 100 µM. With `NC(=O)c1cc(I)ccc1NC(=O)/C=C/c1ccccc1` the GI50 was 0.457 µM and the TGI was over 77.6 µM. For `COc1ccc(CNc2c3ccccc3nc3ccccc23)cc1F`, the GI50 was 2.97 µM and the TGI was 12.9 µM. In the case of `CCn1cc(-c2ccnc3[nH]c(-c4cccc(CN(C)C)c4)cc23)c(-c2ccc(NC(=O)N(C)C)cc2)n1`, the GI50 was 2.49 µM and 5.74 µM and the TGI was 22.5 µM and > 10 µM. In the case of `CCN(Cc1c(F)cccc1OC)c1ccc(CO)c(Cl)c1`, the GI50 was 0.0961 µM and the TGI was 0.953 µM. `CCOC(=O)c1c(C)c2c(n1Cc1ccccc1)CSCC2=O` showed a GI50 of 10.3 µM and a TGI of 29.9 µM.

These compounds were tested on SK-MEL-5 melanoma (assay: growth of human tumour cells (NCI), 48 h).
Work on `Cc1nc2sccn2c1-c1nc2sccn2c1/C=C1/C(=O)Nc2ccccc21` yielded a GI50 of 2.94 µM and a TGI of 12.5 µM. Work on `Cc1cccc(NC2=C(Cl)C(=O)c3nc(C)ccc3C2=O)c1` yielded a GI50 of 1.66 µM and a TGI of 3.03 µM. Work on `COc1cc2c(cc1OCCCN1CCN(CCCOc3cc4c(cc3OC)C(=O)N3CC(F)(F)C[C@H]3C=N4)CC1)N=C[C@@H]1CC(F)(F)CN1C2=O` yielded a GI50 of 1.86 µM and a TGI of 4.16 µM. `CCCCCCCCSC1=C(Cl)C(=O)C(OC)=C(OC)C1=O` was tested, and the TGI was 18.6 µM. `COC(=O)C1=CN(CC2=CC(=O)C(C)=CC2=O)C=C(C(=O)OC)C1c1ccccc1OC` gave a GI50 of 14.2 µM and a TGI of 30.4 µM. Work on `COc1cccc2c1O/C(=C\c1ccc([N+](=O)[O-])s1)C2=O` yielded a GI50 of 2.49 µM and a TGI of over 100 µM. `COC(=O)/C=C/c1cc(OC(C)=O)c2c(c1)C(C(=O)OC)C(c1ccc(OC(C)=O)c(OC(C)=O)c1)O2` (configuration not stated) was tested, and the GI50 was 0.0572 µM and the TGI was 1.98 µM. `C=C(C)C(C1C=C(CCC(C=O)=C(C)C)C(=O)O1)C1(OC)C=C(C)C(=O)O1` (configuration not stated) was tested, and the GI50 was 71.4 µM and the TGI was over 100 µM. `CCOC(=O)Nc1c(C)nc2ccccn12` gave a GI50 of over 100 µM and a TGI of over 100 µM. `CC(C)=CCC1=C(O)c2ccccc2C(=O)C1=O` was tested, and the GI50 was 11.2 µM and the TGI was 27 µM and 28 µM. `O=[N+]([O-])c1ccccc1N=Nc1c(O)[nH]c2c(Cl)cc(Cl)cc12` gave a TGI of over 100 µM. In the case of `NC(=S)N/N=C/c1ncccc1O`, the GI50 was 2.04 µM and 1.26 µM and the TGI was 35.5 µM and 67.2 µM. Compound `C=C(CN(C)Cc1ccccc1)c1ccc(NC(=O)c2ccc(C(=C)CN(C)Cc3ccccc3)cc2)cc1` has a GI50 of 68.3 µM and a TGI of over 100 µM. `O=C(CC(=O)Nc1ccccc1)NNC(Sc1ccccc1)c1cc(N=Nc2ccc(Br)cc2)ccc1O` (configuration not stated) showed a TGI of 4.6 µM. Work on `Cc1cc(C(=O)CSC(=S)SC(C)(C)C)ccc1Cl` yielded a TGI of 31.7 µM. For `C=CC12CCN(CC1)C(C(O)c1ccnc3ccc(OC)cc13)C2` (configuration not stated), the GI50 was 39.2 µM and the TGI was over 100 µM. Work on `O=C(Nc1nc(-c2c[nH]c3ccccc23)cs1)c1n[nH]c(=O)c2ccccc12` yielded a GI50 of 1.44 µM and a TGI of over 100 µM. With `CN(C)CCN1CCC(Cc2ccccc2)CC1` the GI50 was 43.2 µM and the TGI was over 80 µM. `COc1cc2c3c(n(C)c(=O)c2cc1OC)-c1cc2c(cc1C3=O)OCO2` was tested, and the TGI was over 44.8 µM. `COc1ccc(/C=C\c2cc(OC)c(OC)c(OC)c2)cc1OCC(=O)O` showed a TGI of 50.1 µM. `O=C(CNc1ccc(Cl)cc1Cl)Nn1c(-c2ccccc2)nc2ccccc2c1=O` was tested, and the TGI was 18.5 µM. With `O=C(Nc1ncc(Cc2cccc(C(F)(F)F)c2)s1)c1ccc2c(c1)OCCO2` the GI50 was 0.281 µM and the TGI was 2.36 µM. With `NC(=O)c1cc(I)ccc1NC(=O)/C=C/c1ccccc1` the GI50 was 0.38 µM and the TGI was 12.5 µM. `COc1ccc(CNc2c3ccccc3nc3ccccc23)cc1F` showed a GI50 of 3.21 µM and a TGI of 10.6 µM. `CCn1cc(-c2ccnc3[nH]c(-c4cccc(CN(C)C)c4)cc23)c(-c2ccc(NC(=O)N(C)C)cc2)n1` was tested, and the GI50 was 6.55 µM and the TGI was 23.6 µM. With `CCN(Cc1c(F)cccc1OC)c1ccc(CO)c(Cl)c1` the GI50 was 11.9 µM and the TGI was 24.2 µM. Compound `CCOC(=O)c1c(C)c2c(n1Cc1ccccc1)CSCC2=O` has a GI50 of 11.6 µM and a TGI of 23.9 µM.

What follows are compounds tested on SNB-19 CNS (assay: growth of human tumour cells (NCI), 48 h).
`Cc1nc2sccn2c1-c1nc2sccn2c1/C=C1/C(=O)Nc2ccccc21` showed a GI50 of 3.52 µM and a TGI of 23.9 µM. Work on `Cc1cccc(NC2=C(Cl)C(=O)c3nc(C)ccc3C2=O)c1` yielded a GI50 of 1.29 µM and a TGI of 10.3 µM. For `COc1cc2c(cc1OCCCN1CCN(CCCOc3cc4c(cc3OC)C(=O)N3CC(F)(F)C[C@H]3C=N4)CC1)N=C[C@@H]1CC(F)(F)CN1C2=O`, the GI50 was 4.08 µM and the TGI was 17.5 µM. `CCCCCCCCSC1=C(Cl)C(=O)C(OC)=C(OC)C1=O` showed a TGI of 24.3 µM. For `COC(=O)C1=CN(CC2=CC(=O)C(C)=CC2=O)C=C(C(=O)OC)C1c1ccccc1OC`, the GI50 was over 54.9 µM and the TGI was over 100 µM. Compound `COc1cccc2c1O/C(=C\c1ccc([N+](=O)[O-])s1)C2=O` has a GI50 of 4.21 µM and a TGI of over 100 µM. `COC(=O)/C=C/c1cc(OC(C)=O)c2c(c1)C(C(=O)OC)C(c1ccc(OC(C)=O)c(OC(C)=O)c1)O2` (configuration not stated) showed a GI50 of 0.131 µM and a TGI of over 100 µM. `C=C(C)C(C1C=C(CCC(C=O)=C(C)C)C(=O)O1)C1(OC)C=C(C)C(=O)O1` (configuration not stated) was tested, and the GI50 was over 100 µM and the TGI was over 100 µM. Work on `CCOC(=O)Nc1c(C)nc2ccccn12` yielded a GI50 of over 100 µM and a TGI of over 100 µM. In the case of `CC(C)=CCC1=C(O)c2ccccc2C(=O)C1=O`, the GI50 was > 100 µM and 16.4 µM and 29.4 µM and the TGI was over 100 µM. With `O=[N+]([O-])c1ccccc1N=Nc1c(O)[nH]c2c(Cl)cc(Cl)cc12` the TGI was over 100 µM. `NC(=S)N/N=C/c1ncccc1O` was tested, and the GI50 was 3.61 µM and the TGI was 295 µM. For `C=C(CN(C)Cc1ccccc1)c1ccc(NC(=O)c2ccc(C(=C)CN(C)Cc3ccccc3)cc2)cc1`, the GI50 was 25.5 µM and the TGI was 80.1 µM. `O=C(CC(=O)Nc1ccccc1)NNC(Sc1ccccc1)c1cc(N=Nc2ccc(Br)cc2)ccc1O` (configuration not stated) gave a TGI of over 10 µM. `Cc1cc(C(=O)CSC(=S)SC(C)(C)C)ccc1Cl` showed a TGI of 32 µM. `C=CC12CCN(CC1)C(C(O)c1ccnc3ccc(OC)cc13)C2` (configuration not stated) gave a GI50 of over 100 µM and a TGI of over 100 µM. `O=C(Nc1nc(-c2c[nH]c3ccccc23)cs1)c1n[nH]c(=O)c2ccccc12` gave a GI50 of over 34.5 µM and a TGI of over 75 µM. For `CN(C)CCN1CCC(Cc2ccccc2)CC1`, the GI50 was over 80 µM and the TGI was over 80 µM. `COc1cc2c3c(n(C)c(=O)c2cc1OC)-c1cc2c(cc1C3=O)OCO2` showed a TGI of over 100 µM. With `COc1ccc(/C=C\c2cc(OC)c(OC)c(OC)c2)cc1OCC(=O)O` the TGI was over 45.6 µM. `O=C(CNc1ccc(Cl)cc1Cl)Nn1c(-c2ccccc2)nc2ccccc2c1=O` showed a TGI of 33.9 µM. `O=C(Nc1ncc(Cc2cccc(C(F)(F)F)c2)s1)c1ccc2c(c1)OCCO2` showed a GI50 of 0.506 µM and a TGI of over 68.4 µM. `NC(=O)c1cc(I)ccc1NC(=O)/C=C/c1ccccc1` gave a GI50 of 0.645 µM and a TGI of 13.7 µM. Work on `COc1ccc(CNc2c3ccccc3nc3ccccc23)cc1F` yielded a GI50 of 3.41 µM and a TGI of 14.7 µM. With `CCn1cc(-c2ccnc3[nH]c(-c4cccc(CN(C)C)c4)cc23)c(-c2ccc(NC(=O)N(C)C)cc2)n1` the GI50 was 10 µM and > 10 µM and the TGI was 45 µM and > 10 µM. `CCN(Cc1c(F)cccc1OC)c1ccc(CO)c(Cl)c1` was tested, and the GI50 was 24.2 µM and the TGI was over 100 µM. With `CCOC(=O)c1c(C)c2c(n1Cc1ccccc1)CSCC2=O` the GI50 was 14.2 µM and the TGI was over 100 µM.
